# In patent publication US20090062222A1, “Methods for Sensitizing Cancer Cells to Inhibitors” (TRUSTEES OF BOSTON UNIVERSITY, priority 2005, published 2009):
# Like-named read-outs stand apart in the source and are kept apart here. Where a SMILES comes first, the peptide text is derived from it. The star is where a group is joined. Cbz = O=C(OCc1ccccc1)*
# What was measured:
# [1] = test system: HSP72; assay: HSP72 induction in MM.1S cells (heat shock, proteasome or HSP90 inhibitors), immunoblotting; type: cell-based, human; conditions: for HSP72 induction by the drug: 16 hours; for inhibition at 10 µM: Homo sapiens, MM1.S, read-out: HSP72 inhibition, by Emunin (10 μM), MM.1s
# [2] = test system: MM.1S cells; assay: Apoptosis by PARP cleavage in MM.1S cells
# [3] = test system: CHO cells; assay: Toxicity in CHO cells; type: cell-based; conditions: for IC50: Cricetulus griseus, read-out: IC50 toxicity
# Source text: Three of these compounds, including emetine, tubulosine, and NZ28, have significant structural similarity.
# [4] = test system: HSP72 induction (CHO cells); assay: Inhibition of Hsp72 induction by heat shock in CHO cells (immunoblotting); type: cell-based; conditions: for IC50 / Inhibition of Hsp72 induction, second step of the screening: CHO cells; for Inhibition of Hsp72 induction by heat shock, NCI similarity set: concentrations between 2 and 10 μM; for Inhibition of Hsp72 induction, second step of the screening: 2 μM, 45° C. 10 min, then 6 hours at 37° C.
# [5] = test system: HCT-116 cells; assay: Apoptosis by PARP cleavage in HCT-116 cells; type: cell-based, human
# Source text: Sensitization to proteasome and Hsp90 inhibitors was seen when we tested additional cancer cells lines. In fact, depletion of HSF1 by treatment with siRNA in either a distinct prostate carcinoma line DU-145 or colon carcinoma HCT-116 cells led to suppression of the heat shock response and increased sensitivity to MG132 and 17-AAG (FIG. 2). […] Depletion of HSF1 in these cells led to a dramatic reduction of the constitutive Hsp72 levels (FIG. 2B) and very strong sensitization to the drugs (FIGS. 2C, 2D, and 2E).
# [6] = test system: PC-3 cells; assay: Apoptosis by PARP cleavage in PC-3 cells
# [7] = test system: HSP72; assay: HSP72 induction in PC-3 cells (heat shock, proteasome or HSP90 inhibitors), immunoblotting; type: cell-based, human; conditions: for inhibition at 10 µM: Homo sapiens
# [8] = test system: PC-3 cells; assay: Clonogenic survival of PC-3 cells
# [9] = test system: CMV-driven GFP; assay: General protein synthesis: CMV-driven GFP expression in CHO cells; type: cell-based; conditions: added 16 hours post-infection, 24 hours, NZ28 2 μM, emunin 10 μM
# [10] = test system: HSP27; assay: HSP27 induction by proteasome and HSP90 inhibitors in MM.1S cells, immunoblotting; conditions: VELCADE or Radicicol, emunin 10 μM, NZ28 2 μM added 5 hours before
# [11] = test system: HSF1-activated Hsp70B promoter; assay: HSF1 activity: luciferase reporter under Hsp70B promoter in PC-3 cells after heat shock; conditions: added 5 hours before 45° C. 10 min, overnight recovery
# [12] = test system: protein synthesis; conditions: cited from earlier work
# [13] = Cricetulus griseus, heat shock, read-out: IC50 HSP72 Induction Inhibition (CHO cells)
# [14] = Cricetulus griseus, heat shock (FIGS. 3A and 3B), read-out: IC50 for inhibition of Hsps induction
smiles,measurement,setting,value
"CC(C)C[C@H](NC(=O)[C@H](Cc1ccccc1)NC(=O)c1cnccn1)B(O)O [VELCADE®, bortezomib, reference compound]",HSP72 induction by the drug,[1]; MM.1S,Strong induction
same,"PARP cleavage, VELCADE alone","[2]; 5 nM, overnight",30%
COc1cc2c(cc1OC)C(CC1=CCN3CCc4ccccc4C3C1)NCC2 (centres unmarked) [NZ60],IC50,[3]; CHO cells,< 2000 nM
same,IC50,[4]; [13],> 10000 nM
C[C@@H]1C[C@H]2O[C@@H]2/C=C\C=C\C(=O)Cc2c(Cl)c(O)cc(O)c2C(=O)O1 [radicicol],"PARP cleavage, radicicol alone","[2]; 0.5 μM, 24 hours",10%
same,Sensitivity of control cells,[5]; HCT-116 control cells,resistant
same,Sensitivity of si-HSF1 cells,[5]; HCT-116 si-HSF1 cells,quite sensitive
COc1cc2c(cc1OC)C(CC1=C(c3ccccc3)CN3CCc4cc(OC)c(OC)cc4C3C1)NCC2 (centres unmarked) [NZ62],IC50,[3]; CHO cells,< 2000 nM
same,IC50,[4]; [13],> 10000 nM
"COc1cccc2c1C(=O)c1c(O)c3c(c(O)c1C2=O)C[C@@](O)(C(=O)CO)C[C@@H]3O[C@H]1C[C@H](N)[C@H](O)[C@H](C)O1 [doxorubicin, reference compound]",Sensitization to apoptosis by si-HSF1,[6],little or no sensitization
"CCC1CN2CCc3cc(OC)c(OC)cc3C2CC1CC1NCCc2cc(O)c(OC)cc21 (stereo not drawn) [Isocephaeline, Emetan-6′-ol, 7′,10,11-trimethoxy-,(1′beta)-]",IC50,[3]; CHO,< 500 nM
same,IC50,[4]; [13],< 500 nM
same,"Inhibition of Hsp72 induction by heat shock, NCI similarity set",[4],inhibit Hsp72 induction
COc1ccc(CC2NCCc3cc(OC)c(OC)cc32)cc1OC (centres unmarked) [NZ54],IC50,[3]; CHO cells,< 2000 nM
same,IC50,[4]; [13],> 10000 nM
"CC(C)C[C@@H](C=O)NC(=O)[C@H](CC(C)C)NC(=O)[C@H](CC(C)C)NC(=O)OCc1ccccc1 [MG132, N-carbobenzoxyl-Leu-Leu-leucinal, reference compound] (Cbz-Leu-Leu-Leu-aldehyde)",HSP72 induction by the drug,[1]; MM.1S,Strong induction
same,Hsp72 induction by the drug,"[7]; PC-3 RetroQ cells, 24 hours",strongly induced
same,"Sensitivity of si-HSF1 cells, colony forming ability",[8]; between 0.25 μM and 2 μM,very strong enhancement of sensitivity
same,"PARP cleavage, MG132 alone","[6]; PC-3, 2 days",approximately 10%
CCC1CN2CCc3cc(OC)c(OC)cc3C2CC1C1c2cc(OC)c(OC)cc2CCN1C(=O)CNC(=O)OC(C)(C)C (centres unmarked) [NZ71],Cell growth inhibition,[3]; CHO cells,very little cell growth inhibition
same,Toxicity,[3]; CHO cells,non-toxic
same,IC50,[3]; CHO cells,> 10000 nM
same,inhibition at 10 µM,"[1]; 4 min, Heat Shock 45° C., 4 min",90%
same,inhibition at 10 µM,[1]; HSP90 Inhibitor Radicicol 0.8 μM,90%
same,inhibition at 10 µM,[1]; Proteasome Inhibitor VELCADE 5 nM,95%
same,Inhibition of Hsp72 induction in response to Hsp90 inhibitors radicicol and 17-AAG,[1]; MM.1S blocked stronger than PC-3,inhibited induction of Hsp72
same,Inhibition of HSP72 induction by proteasome inhibitors,"[1]; MM.1S, VELCADE or MG132 for 16 hours",almost completely inhibited HSP72 induction
same,Inhibition of GFP expression (CMV promoter),[9],No significant inhibition of GFP expression
same,inhibition at 10 µM,"[7]; PC-3, 20 min, read-out: HSP72 inhibition, by Emunin (10 μM), PC-3, Heat Shock 45° C., 20 min",80%
same,inhibition at 10 µM,"[7]; PC-3, read-out: HSP72 inhibition, by Emunin (10 μM), PC-3, HSP90 Inhibitor 17-AAG 2 μM",60%
same,inhibition at 10 µM,"[7]; PC-3, read-out: HSP72 inhibition, by Emunin (10 μM), PC-3, Proteasome Inhibitor MG132 1 μM",80%
same,Inhibition of Hsp72 induction by 17-AAG,[7]; PC-3 cells,only weak inhibition
same,"Colony forming ability, emunin alone",[8],did not affect the colony forming ability
same,Inhibition of Hsp27 induction,[10],inhibit HSP72 and HSP27 induction
same,"PARP cleavage, emunin alone",[2],did not cause PARP cleavage
same,"PARP cleavage, emunin and VELCADE together","[2]; VELCADE 5 nM + 10 μM emunin, overnight",70%
same,"PARP cleavage, radicicol and emunin","[2]; radicicol 0.5 μM + 10 μM emunin, 24 hours",about 50%
same,Inhibition of luciferase induction by heat shock (Hsp70B promoter reporter),[11],about 40%
same,inhibition at 10 µM,"[4]; Cricetulus griseus, 10 min, CHO, Heat Shock 45° C., 10 min, 10 μM, read-out: HSP72 inhibition, by Emunin (10 μM)",95%
same,IC50,[4]; [14],5000 nM
same,IC50,[4]; [13],5000 nM
same,"Inhibition of Hsp72 induction by heat shock, NCI similarity set",[4],inhibit Hsp72 induction
same,Sensitization of si-HSF1 PC-3 cells to MG-132,[6]; HSF1-depleted PC-3 cells,no apparent sensitization
same,"PARP cleavage, MG132 and emunin","[6]; PC-3, 2 days",50%
same,Sensitization to radicicol,[6]; PC-3 cells,little sensitization
"O=c1c(O)c(-c2ccc(O)c(O)c2)oc2cc(O)cc(O)c12 [quercetin, reference compound]",IC50,[4]; [14],~50000 nM
"CCC1=C(CC2NCCc3cc(OC)c(OC)cc32)CC2c3cc(OC)c(OC)cc3CCN2C1 (centres unmarked) [dehydroemetine, reference compound]",IC50,[3]; CHO cells,< 500 nM
same,IC50,[4]; [13],< 500 nM
same,"Inhibition of Hsp72 induction by heat shock, NCI similarity set",[4],inhibit Hsp72 induction
CCC1CN2CCc3cc(OC)c(OC)cc3C2CC1CC1NCCc2c1[nH]c1ccc(OC)cc21 (centres unmarked) [NZ72],IC50,[3]; CHO cells,> 2000 nM
same,IC50,[4]; [13],2000 nM
same,"Inhibition of Hsp72 induction by heat shock, NCI similarity set",[4],inhibit Hsp72 induction
"C=CCNC1=C2C[C@@H](C)C[C@H](OC)[C@H](O)[C@@H](C)/C=C(\C)[C@H](OC(N)=O)[C@@H](OC)/C=C\C=C(/C)C(=O)NC(=CC1=O)C2=O [17-AAG, 17-(allylamino)-17-demethoxygeldanamycin, reference compound]",Hsp72 induction by the drug,[7],strongly induced
same,"Sensitization by si-HSF1, colony forming ability",[8]; wide range of concentrations,about 5 fold
same,Increase in PARP cleavage on depletion of HSF1,"[6]; PC-3, 0.25 μM, 24 hours",100%
"CCC1CN2CCc3cc(OC)c(OC)cc3C2CC1CC1NCCc2cc(OC)c(OC)cc21 (centres unmarked) [Emetine, reference compound]",Toxicity in an apoptotic assay,[3],showed toxicity
same,IC50,[3]; CHO cells,< 250 nM
same,"Inhibition of Hsp72 induction, second step of the screening",[4],inhibit Hsp72 induction
same,IC50,[4]; [13],< 250 nM
same,Concentration at which protein synthesis is inhibited,[12],above 10 μM
COc1cc2c(cc1OC)CN1CCc3cc(OC)c(OC)cc3C1C2 (centres unmarked) [NZ50],IC50,[3]; CHO cells,< 2000 nM
same,IC50,[4]; [13],> 10000 nM
CCC1CN2CCc3cc(OC)c(OC)cc3C2CC1CC1NCCc2c1[nH]c1ccc(O)cc21 (centres unmarked) [tubulosine],Toxicity in an apoptotic assay,[3],showed toxicity
same,IC50,[3]; CHO,250 nM
same,"Inhibition of Hsp72 induction, second step of the screening",[4],inhibit Hsp72 induction
same,IC50,[4]; [13],500 nM
CCC1=C(C)CC2c3cc(OC)c(OC)cc3CCN2C1 (centres unmarked) [NZ61],IC50,[3]; CHO cells,< 2000 nM
same,IC50,[4]; [13],> 10000 nM
